From PMC11809180, “RA-PR058, a novel ramalin derivative, reduces BACE1 expression and phosphorylation of tau in Alzheimer’s disease mouse models” (Animal Cells and Systems, 2025)

Key:
Type in all cases: in vivo, mouse
tau = test: Tau phosphorylation in brain of 3xTg-AD mice (western blot, DAB staining); conditions: 20 mg/kg oral daily 4 weeks
Protocol: (§1) 3xTg-AD (B6;129-Tg(APPSwe,tauP301L)1Lfa Psen1^tm1Mpm/Mmjax) mice and their littermate wild-type (WT) mice were used in this study. Each experimental group consisted of 4–8 mice, with groups designated as WT, 3xTg-AD Vehicle, and 3xTg-AD RA-PR058. All mice were maintained in a 12-hour light/dark cycle with free access to food and water. 7-month-old age of mice were administered with 20 mg/kg of RA-PR058 orally once a day for 1 month followed by the elevated plus maze test. All animal experimental procedures were approved by the Institutional Animal Care and Use Committee of Sungkyunkwan University (SKKUIACUC2022-10-41-1).
(§2) After EPM was conducted, mice were sacrificed, and brain tissues were collected as previously described (Park et al. [2021]). Mice were anesthetized by injecting Zoletil (Virbac) and Rompun (Bayer) intraperitoneally. After mice were anesthetized, they were perfused with phosphate-buffered saline (PBS). Then, brains were extracted and cut into two hemispheres; one hemisphere was preserved in 4% paraformaldehyde and the other was dissected into the cortex and hippocampus. Dissected tissues were then snap-frozen in liquid nitrogen and stored at −80 ℃ until further biochemical analysis.
Samples for western blot analysis were prepared as previously described (Gwon et al. [2012]). Cells were lysed with T-PER™ Tissue Protein Extraction Reagent (Thermo Fisher Scientific) supplemented with protease/phosphatase inhibitor cocktail (Thermo Fisher Scientific) and incubated at 4 ℃ for 10 minutes. After incubation, lysed samples were centrifuged at 13,000 x rpm for 10 minutes at 4 ℃ and the supernatant were used for western blot analysis. The cortices and hippocampi tissues were homogenized using RIPA lysis buffer (Millipore) supplemented with protease/phosphatase inhibitor cocktail and incubated at 4 ℃ for 30 minutes. Following incubation, lysed tissues were centrifuged at 13,000 x rpm for 30 minutes at 4 ℃ and the supernatant were used for western blot analysis. Protein concentrations were measured using Pierce™ BCA Protein Assay Kits (Thermo Fisher Scientific). Equal amounts of proteins were mixed with NuPAGE™ LDS Sample Buffer (Invitrogen) and 5% 2-mercaptoethanol (Sigma) and then boiled at 95 ℃ for 5 minutes. 4–12 μg of proteins were loaded onto SDS-polyacrylamide gels and electrophoresed (SDS-PAGE) until the protein bands were fully separated. After SDS-PAGE, the protein bands were transferred onto polyvinylidene fluoride (PVDF) membranes (Millipore). Following transfer, PVDF membranes were blocked with 5% non-fat skim milk in tris-buffered saline with Tween20 (Junsei) (TBS-T) for 1 hour at room temperature. Then, PVDF membranes were incubated overnight at 4 ℃ with primary antibodies against APP (6E10, BioLegend, 803001, 1:1,000), AT8 (Invitrogen, MN1020, 1:1,000), AT180 (Invitrogen, MN1040, 1:1,000), BACE1 (Cell Signaling Technology, 5606, 1:1,000), β-Actin (Sigma, A5441, 1:10,000), p-JNK (Cell Signaling Technology, 4671, 1:1,000), JNK (Cell Signaling Technology, 9252, 1:1,000), p-Tau^S396 (Invitrogen, 44-752G, 1:1,000), Tau13 (BioLegend, 835201, 1:1,000). Following incubation, membranes were washed with TBS-T and incubated with horseradish peroxidase-conjugated anti-mouse secondary antibody (Sigma, AP124P, 1:5,000) or anti-rabbit secondary antibody (Invitrogen, 31460, 1:5,000) for 1 hour at room temperature. […] Protein bands were quantified using ImageJ (NIH). […]

JNK = JNK phosphorylation in cortex of 3xTg-AD mice (western blot); conditions: 20 mg/kg oral daily 4 weeks, p-JNK normalized with JNK
Protocol: as §1
as §2, with “Dissected tissues were then snap-frozen in liquid nitrogen and stored at −80 ℃ until further biochemical analysis.” left out
Samples for western blot analysis were prepared as previously described (Gwon et al. [2012]). […] Protein concentrations were measured using Pierce™ BCA Protein Assay Kits (Thermo Fisher Scientific). […] Protein bands were quantified using ImageJ (NIH).

3xTg-AD mice = test: Elevated plus maze test in 3xTg-AD mice; conditions: 20 mg/kg oral daily for 1 month, vs vehicle-treated 3xTg-AD
Protocol: as §1
The elevated plus maze (EPM) test is a widely used behavioral assay to assess anxiety-like behavior in mice (Walf and Frye [2007]). After administering RA-PR058 for 1 month, EPM was performed to evaluate its effects. Briefly, the mouse was placed in the center of the maze, facing an open arm, and allowed to explore freely for 5 minutes. Behavioral patterns were recorded and analyzed by EthoVision software (Noldus). Data were used to assess the effects of RA-PR058 on anxiety-like behavior compared to control mice.

Cl.N[C@@H](CCC(=O)NNc1ccccc1F)C(F)F [RA-PR058, (S)-4-amino-5,5-difluoro-N'-(2-fluorophenyl)pentanehydrazide hydrochloride]
Tau phosphorylation at Ser202/Thr205 (AT8) (tau; cortex, normalized with Tau13): significantly reduced | Tau phosphorylation at Ser396 (tau; cortex, normalized with Tau13): significantly reduced | Tau phosphorylation at Thr231 (AT180) (tau; cortex, normalized with Tau13): significantly reduced | AT8 expression in the hippocampus (tau; hippocampus): significantly reduced | Other phosphorylated tau species in the hippocampus (tau; hippocampus, AT180, p-Tau S396): did not affect | JNK phosphorylation (JNK): significantly downregulated | Time spent in open arms of the EPM (3xTg-AD mice): significantly more time
